Experimental findings from patent publication US20190375708A1 (VenatoRx Pharmaceuticals, Inc., priority 2018, published 2019) are described below.

What is called EC50 is the concentration needed to bring the measured effect to its halfway point. What is called CC50 is the concentration that lowers cell viability or growth by half. Read a low CC50 as harm at low concentration.

For data set [1], the system named is HBV replication in HepAD38 cells. Put plainly: Anti-HBV replication assay in HepAD38 cells (QPCR of extracellular HBV DNA). Type of data set: cell-based, HBV (genotype D, serotype ayw). The following applies: Hepatitis B virus, 168 h, 7 days incubation, extracellular HBV DNA by QPCR, read-out: Anti-HBV EC50. As for the experimental part: The anti-HBV activity of the Capsid Assembly Modulators (CAMs) was evaluated in a cell based assay utilizing the human hepatoma cell line HepAD38 (Ladner, S K., et al., 1998). HepAD38 cells were derived from the parental line, HepG2, that were stably transfected with a construct containing an HBV genome (genotype D, serotype ayw) under the control of a tetracycline repressible CMV promoter. Upon removal of tetracycline, viral pre-genomic RNA (pgRNA) and mRNAs are expressed and infectious viral particles are assembled and secreted into the culture medium providing a reliable, robust system to measure multiple steps of the HBV life cycle. Disruption of capsid formation results in reduced levels of DNA-containing virus particles that are released into the culture supernatant. To quantify the effect of CAMs on HBV replication, we developed a sensitive QPCR-based assay that measures extracellular HBV DNA levels upon treatment of HepAD38 cells with various concentrations of test compounds.
HepAD38 cells were maintained in DMEM/F12 medium containing 10% FBS, 400 μg/mL G418 and 0.3 μg/mL tetracycline (tet+ media) to maintain repression of HBV replication. To evaluate each compound, HepAD38 cells were seeded into 24-well collagen coated culture plates (Corning BioCoat) at a density of 200,000 cells per well in 1 mL of medium without tetracycline (tet-media) and allowed to adhere overnight at 37° C., 5% CO2 in a humidified incubator. The following day, media was refreshed and a dose range of each compound was prepared by performing 1 log10 serial dilutions in 100% DMSO at 200× the desired assay concentration. Dilutions were then added to the cells resulting in a final dose range of 1 μM to 10 μM and the plates were returned to the incubator. Following 7 days of incubation, culture supernatants were harvested and HBV DNA levels were evaluated by QPCR and compared to the vehicle treated control wells (i.e. DMSO alone).
To quantify HBV DNA levels, cell culture supernatants were diluted 1:10 in sterile, nuclease-free water (Gibco). The diluted supernatants were subsequently added to a PCR master mix containing 1× Roche Light Cycler Master Mix, 0.5 μM forward primer, 0.5 μM reverse primer (Fwd: 5′-[…] (SEQ ID NO 1); Rev: 5′-[…] (SEQ ID NO 2)), 0.2 μM Roche Universal Probe Library Probe 25. The volume was brought to 20 μL with nuclease-free water and amplification of the HBV target sequence was performed using a Roche LightCycler 480 QPCR instrument. PCR extended out to 45 cycles with each cycle consisting of a denaturation step at 95° C. for 10 sec., followed by an annealing step at 60° C. for 10 sec. and a brief extension step at 72° C. for 1 sec.
Extracellular HBV DNA levels, expressed in copies/mL, were determined by comparison to a standard curve (10^2-10^9 copies/mL) using the Roche LightCycler analysis software. These values were subsequently converted to percent inhibition of HBV replication by dividing the HBV DNA levels in the experimental samples with those obtained from the vehicle control (˜1-2×10^5 copies/mL). Potency, expressed as an EC50 (the effective concentration required to inhibit 50% of HBV replication), was calculated from the dose-response curve using a 4-parameter non-linear regression analysis (GraphPad Prism). The nucleoside analog inhibitor entecavir was used as a positive control to validate each assay run. The EC50 value of entecavir in the HepAD38 assay was 0.5 nM, as previously reported in the literature.

The nature of data set [2]: In vitro cytotoxicity assay (MTT cell viability) in HepG2 cells. In kind it is cell-based, human. Conditions: human. How it is done: To evaluate antiviral selectivity, the cytotoxic activity of each compound was determined using a standard cell viability assay performed on the parental HepG2 cell line. Cell viability was determined by measuring the conversion of 3-(4,5-dimethylthiazol-2-yl)-2,5-diphenyltetrazolium bromide (MTT) to the insoluble formazan salt crystal that occurs in live cells. Briefly, HepG2 cells were seeded in 96-well plates at a density of 20,000 cells per well in EMEM+10% FBS (complete growth medium) and allowed to adhere overnight in a 37° C., 5% CO2 humidified incubator. The next day, test agents were prepared by performing 8 half-log10 serial dilutions in 100% DMSO at 200× the final desired concentration in the assay. Compounds were tested over a range of concentrations from 30 μM to 1.0 nM in the assay. HepG2 cells were incubated in the presence of various concentrations of CAMs for 7 days in a 37° C., 5% CO2 humidified incubator. At the completion of the 7-day incubation period, MTT reagent was added to each well and the mixture was incubated for an additional 3-4 hours. At the completion of the incubation period, all wells were aspirated to remove the culture medium. The formazan crystals were solubilized from the cell monolayers with 100% DMSO. Plates were briefly mixed on an orbital shaker and absorbance was measured at 492 nm using a Perkin-Elmer EnVision multi-label plate reader. All absorbance values were converted to a percentage of the signal obtained from the vehicle treated controls. Absorbance values at 492 nm are directly proportional to the number of viable cells present in the sample. A CC50 value (cytotoxic concentration that results in loss of 50% cell viability) was calculated from the dose-response curve by 4-parameter, non-linear regression analysis using the GraphPad Prism software. The positive control compound, staurosporine, reduced the viability of HepG2 cells in a dose-dependent manner (CC50=100 nM).

Turning to `Cc1cc(NC(=O)c2c(C)c(C(=O)C(=O)N[C@H](CO)C(C)(C)C)n(C)c2C)ccc1F` [Example 67, (S)—N-(4-fluoro-3-methylphenyl)-5-(2-((1-hydroxy-3,3-dimethylbutan-2-yl)amino)-2-oxoacetyl)-1,2,4-trimethyl-1H-pyrrole-3-carboxamide], the EC50 in data set [1] is < 50 nM. In addition, the CC50 at 7 days in data set [2] is > 30000 nM.
For `CCn1c(C)c(C(=O)Nc2ccc(F)c(C)c2)c(C)c1C(=O)C(=O)N[C@H]1CC[C@@H](O)CC1` [Example 284, 1-ethyl-N-(4-fluoro-3-methylphenyl)-5-(2-(((1s,4s)-4-hydroxycyclohexyl)amino)-2-oxoacetyl)-2,4-dimethyl-1H-pyrrole-3-carboxamide], in that order: < 50 nM and > 30000 nM.
The like results for `CC(C)(CO)NC(=O)C(=O)c1c(Cl)c(C(=O)Nc2ccnc(F)c2)c2n1CCCC2` [Example 512, 2-chloro-N-(2-fluoropyridin-4-yl)-3-(2-((1-hydroxy-2-methylpropan-2-yl)amino)-2-oxoacetyl)-5,6,7,8-tetrahydroindolizine-1-carboxamide] were, in that order, 500 to 1000 nM and > 30000 nM.
For `Cc1cc(NC(=O)c2cc(C(=O)C(=O)NC(C)(C)C)n3c2CCCC3)cc(F)c1F` [Example 397, 3-(2-(tert-butylamino)-2-oxoacetyl)-N-(3,4-difluoro-5-metthylphenyl)-5,6,7,8-tetrahydroindolizine-1-carboxamide], in that order: 50 to 499 nM and 5000 to 30000 nM.
On to `Cc1cc(NC(=O)c2c(Cl)c(C(=O)C(=O)NC(C)(C)C)n3c2CCCC3)ccc1F` [Example 489], for which, in data set [1], the EC50 is < 50 nM. Also, in data set [2], the CC50 at 7 days is > 30000 nM.
For `COc1c(C(=O)Nc2ccc(F)c(F)c2)c(C)n(C)c1C(=O)C(=O)NC(C)(C)C` [Example 380], in that order: < 50 nM and > 30000 nM.
For `O=C(NC1(CO)CC1)C(=O)c1c(Cl)c(C(=O)Nc2ccc(F)c(Cl)c2)c2n1CCCC2` [Example 501, 2-chloro-N-(3-chloro-4-fluorophenyl)-3-(2-((1-(hydroxymethyl)cyclopropyl)amino)-2-oxoacetyl)-5,6,7,8-tetrahydroindolizine--1 carboxamide], in that order: 50 to 499 nM and 5000 to 30000 nM.
The like results for `Cc1cc(NC(=O)c2c(C)c(C(=O)C(=O)Nc3ccc(C(F)(F)F)nc3)n(C)c2C)ccc1F` [Example 264, N-(4-fluoro-3-methylphenyl)-1,2,4-trimethyl-5-(2-oxo-2-((6-(trifluoromethyl)pyridin-3-yl)amino)acetyl)-1H-pyrrole-3-carboxamide] were, in that order, < 50 nM and 5000 to 30000 nM.
Turning to `Cc1cc(NC(=O)c2c(C)c(C(=O)C(=O)NC(C)(C)c3nc(CN(C)C)no3)n3c2CCCC3)ccc1F` [Example 437, 3-(2-((2-(3-((dimethylamino)methyl)-1,2,4-oxadiazol-5-yl)propan-2-yl)amino)-2-oxoacetyl)-N-(4-fluoro-3-methylphenyl)-2-methyl-5,6,7,8-tetrahydroindolizine-1-carboxamide], in data set [1], the EC50 lay in the range of 50 to 499 nM. In data set [2], the CC50 at 7 days is > 30000 nM.
As to `Cc1noc([C@@H](C)NC(=O)C(=O)c2c(Cl)c(C(=O)Nc3ccc(F)c(Cl)c3)c3n2CCC3)n1` [Example 554, (R)-6-chloro-N-(3-chloro-4-fluorophenyl)-5-(2-((1-(3-methyl-1,2,4-oxadiazol-5-yl)ethyl)amino)-2-oxoacetyl)-2,3-dihydro-1H-pyrrolizine-7-carboxamide], in data set [1], the EC50 was < 50 nM. This compound came in with a CC50 at 7 days in data set [2] of 5000 to 30000 nM.
The like results for `Cc1cc(NC(=O)c2c(C)c(C(=O)C(=O)N[C@H]3CC[C@H](O)CC3)n(C)c2C)ccc1F` [Example 246, N-(4-fluoro-3-methylphenyl)-5-(2-(((1r,4r)-4-hydroxycyclohexyl)amino)-2-oxoacetyl)-1,2,4-triemthyl-1H-pyrrole-3-carboxamide] were, in that order, < 50 nM and 5000 to 30000 nM.
Regarding `Cc1cc(NC(=O)c2cc(C(=O)C(=O)NCC(C)(C)O)n3c2CCCC3)ccc1F` [Example 419, N-(4-fluoro-3-methylphenyl)-3-(2-((2-hydroxy-2-methylpropyl)amino)-2-oxoacetyl)-5,6,7,8-tetrahydroindolizine-1-carboxamide], in data set [1], the EC50 is > 1000 nM. In addition, the CC50 at 7 days in data set [2] was > 30000 nM.
The like results for `COCC(C)(C)NC(=O)C(=O)c1c(C)c(C(=O)Nc2ccc(F)c(C)c2)c(C)n1CCF` [Example 241, N-(4-fluoro-3-methylphenyl)-1-(2-fluoroethyl)-5-(2-((1-methoxy-2-methylpropan-2-yl)amino)-2-oxoacetyl)-2,4-dimethyl-1H-pyrrole-3-carboxamide] were, in that order, < 50 nM and > 30000 nM.
For `O=C(N[C@H]1C[C@H](O)C1)C(=O)c1c(Cl)c(C(=O)Nc2ccc(F)c(Cl)c2)c2n1CCC2` [Example 555, 6-chloro-N-(3-chloro-4-fluorophenyl)-5-(2-(((1r,3r)-3-hydroxycyclobutyl)amino)-2-oxoacetyl)-2,3-dihydro-1H-pyrrolizine-7-carboxamide], in that order: 50 to 499 nM and 5000 to 30000 nM.
The like results for `Cc1cc(NC(=O)c2c(C)c(C(=O)C(=O)N[C@@H](C)CCO)n(C)c2C)ccc1F` [Example 142, (S)-N-(4-fluoro-3-methylphenyl)-5-(2-((4-hydroxybutan-2-yl)amino)-2-oxoacetyl)-1,2,4-trimethyl-1H-pyrrole-3-carboxamide] were, in that order, < 50 nM and > 30000 nM.
Turning to `Cc1c(C(=O)Nc2ccc(F)c(F)c2)c2n(c1C(=O)C(=O)NC1(C)CCNCC1)CCCC2` [Example 742], in data set [1], the EC50 was 50 to 499 nM. For the same compound, in data set [2], the CC50 at 7 days is > 30000 nM.
For `CC(C)(CO)CNC(=O)C(=O)c1c(Cl)c(C(=O)Nc2ccnc(F)c2)c2n1CCCC2` [Example 526, 2-chloro-N-(2-fluoropyridin-4-yl)-3-(2-((3-hydroxy-2,2-dimethylpropyl)amino)-2-oxoacetyl)-5,6,7,8-tetrahydroindolizine-1-carboxamide], in that order: > 1000 nM and > 30000 nM.
The like results for `CNC(=O)C(=O)c1c(C)c(C(=O)Nc2ccc(F)c(C)c2)c(C)n1C` [Example 242, N-(4-fluoro-3-methylphenyl)-1,2,4-trimethyl-5-(2-(methylamino)-2-oxoacetyl)-1H-pyrrole-3-carboxamide] were, in that order, 50 to 499 nM and > 30000 nM.
